From patent publication US7868005B2, “Pyrazinyl substituted piperazine-piperidines with CXCR3 antagonist activity” (Schering Corporation, priority 2005, dated 2011)

Molecular target: T1, human CXCR3 (N-delta 4) (Homo sapiens, UniProt P49682)
T1 construct: CD8 leader (N); Flag; expressed in transfected cells; membranes prepared
T1 sequence (P49682 5-368 limits assumed): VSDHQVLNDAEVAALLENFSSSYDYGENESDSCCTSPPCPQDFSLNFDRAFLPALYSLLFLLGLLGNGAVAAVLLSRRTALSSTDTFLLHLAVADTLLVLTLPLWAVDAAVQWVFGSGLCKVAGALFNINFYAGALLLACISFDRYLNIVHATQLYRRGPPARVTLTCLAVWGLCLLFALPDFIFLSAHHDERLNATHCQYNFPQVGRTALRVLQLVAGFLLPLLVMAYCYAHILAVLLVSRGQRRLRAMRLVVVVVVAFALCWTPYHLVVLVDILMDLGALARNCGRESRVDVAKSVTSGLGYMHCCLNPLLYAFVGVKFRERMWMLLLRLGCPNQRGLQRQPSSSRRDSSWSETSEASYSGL
Test: Human CXCR3 (N-delta 4) Scintillation Proximity Assay (SPA), [125I] IP-10 binding to Ba/F3-hCXCR3 membranes
Conditions: IC50 rating, Table 1; read-out: IC50

Row | SMILES | IC50
1 | CC[C@H]1CN(c2nc(N)c(C(=O)NCCO)nc2Cl)CCN1C1CCN(C(=O)c2ccc(Cl)cc2N)CC1 [compound 339] | < 25 nM
2 | CC[C@H]1CN(c2nc(N)c(C(=O)NCCO)nc2Cl)CCN1C1CCN(C(=O)c2ccc(Cl)cc2C(C)C#N)CC1 (some centres unmarked) [compound 344] | 25 to 100 nM
3 | CC[C@H]1CN(c2nc(N)c(C(=O)NCCO)nc2Cl)CCN1C1CCN(C(=O)c2cc(F)c(F)cc2N)CC1 [compound 345] | 25 to 100 nM
4 | CC[C@H]1CN(c2nc(N)c(C(=O)NCCO)nc2Cl)CCN1C1CCN(C(=O)c2ccc(C#CC(C)(C)O)cc2)CC1 [compound 346] | 25 to 100 nM
5 | CC[C@H]1CN(c2nc(N)c(C(=O)NCCO)nc2Cl)CCN1C1CCN(C(=O)c2ccc(Cl)cc2CCNS(C)(=O)=O)CC1 [compound 347] | 25 to 100 nM
6 | CC[C@H]1CN(c2nc(N)c(C(=O)NCCO)nc2Cl)CCN1C1CCN(C(=O)c2ccc(F)c(F)c2N)CC1 [compound 348] | 25 to 100 nM
7 | CC[C@H]1CN(c2nc(N)c(C(=O)NCCO)nc2Cl)CCN1C1CCN(C(=O)c2ccc(F)c(F)c2F)CC1 [compound 351] | 25 to 100 nM
8 | CC[C@H]1CN(c2nc(N)c(C(=O)NCCO)nc2Cl)CCN1C1CCN(C(=O)c2ccc(Cl)cc2CCNC(C)=O)CC1 [compound 352] | > 100 nM
9 | CC[C@H]1CN(c2nc(N)c(C(=O)NCCN/C(N)=N/C#N)nc2Cl)CCN1C1CCN(C(=O)c2ccc(Cl)cc2)CC1 [compound 355] | > 100 nM
10 | CC[C@H]1CN(c2nc(N)c(C(N)=O)nc2Cl)CCN1C1CCN(C(=O)c2ccc(Cl)cc2CC(N)=O)CC1 [compound 357] | > 100 nM
11 | CC[C@H]1CN(c2nc(N)c(C(=O)NCCO)nc2Cl)CCN1C1CCN(C(=O)c2ccc(F)c(F)c2NCc2ccccc2)CC1 [compound 360] | > 100 nM
12 | CC[C@H]1CN(c2nc(N)c(C(=O)NCCO)nc2Cl)CCN1C1CCN(C(=O)c2ccc(OC(F)(F)F)cc2O)CC1 [compound 361] | > 100 nM
13 | CC[C@H]1CN(c2nc(N)c(C(=O)NCCO)nc2Cl)CCN1C1CCN(C(=O)c2ccc(Cl)cc2OC)CC1 [compound 362] | > 100 nM
14 | CC[C@H]1CN(c2nc(N)c(C(=O)NCCO)nc2Cl)CCN1C1CCN(C(=O)c2cc(F)c(F)cc2NC(=O)c2cc(F)c(F)cc2N)CC1 [compound 363] | > 100 nM
15 | CC[C@H]1CN(c2nc(N)c(C(=O)NC)nc2Cl)CCN1C1CCN(C(=O)c2c(C)cc(OCc3ccccc3)cc2C)CC1 [compound 367] | > 100 nM
16 | CC[C@H]1CN(c2nc(N)c(C(=O)NC)nc2Cl)CCN1C1CCN(C(=O)C2Cc3ccccc3C2)CC1 [compound 368] | > 100 nM
17 | CC[C@H]1CN(c2nc(N)c(C(=O)NC)nc2Cl)CCN1C1CCN(C(=O)C2(N)CCc3ccccc3C2)CC1 (some centres unmarked) [compound 369] | > 100 nM
18 | CC[C@H]1CN(c2nc(N)c(C(=O)NC)nc2Cl)CCN1C1CCN(C(=O)C2CCc3ccccc3C2)CC1 (some centres unmarked) [compound 370] | < 25 nM
19 | CC[C@H]1CN(c2nc(N)c(C(=O)OC)nc2Cl)CCN1C1CCN(C(=O)c2ccc(Cl)cc2C(C)C#N)CC1 (some centres unmarked) [compound 372] | > 100 nM

Row | SMILES | IC50
20 | CC[C@H]1CN(c2nc(N)c(C(=O)NCCO[Si](C(C)C)(C(C)C)C(C)C)nc2Cl)CCN1C1CCN(Cc2ccc(F)c(F)c2N2CC[C@H](O)C2)CC1 [compound 374] | > 100 nM
21 | CC[C@H]1CN(c2nc(N)c(C(N)=O)nc2Cl)CCN1C1CCN(Cc2ccc(Cl)cc2C2COC(=O)O2)CC1 (some centres unmarked) [compound 375] | 25 to 100 nM
22 | CC[C@H]1CN(c2nc(N)c(C(N)=O)nc2Cl)CCN1C1CCN(Cc2ccc(Cl)cc2NC(=O)C(C)O)CC1 (some centres unmarked) [compound 377] | 25 to 100 nM
23 | CC[C@H]1CN(c2nc(N)c(C(N)=O)nc2Cl)CCN1C1CCN(Cc2ccc(Cl)cc2C(O)C(=O)N(C)C)CC1 (some centres unmarked) [compound 378] | < 25 nM
24 | CC[C@H]1CN(c2ncc(C(N)=O)nc2OC)CCN1C1CCN(C(=O)c2ccc(Cl)cc2)CC1 [compound 379] | > 100 nM
25 | CC[C@H]1CN(c2nc(N)c(C(N)=O)nc2Cl)CCN1C1CCN(Cc2ccc(Cl)cc2C2NC(=O)N(C)C2=O)CC1 (some centres unmarked) [compound 380] | > 100 nM
26 | CC[C@H]1CN(c2nc(N)c(C(N)=O)nc2Cl)CCN1C1CCN(Cc2ccc(Cl)cc2C(N)C(N)=O)CC1 (some centres unmarked) [compound 381] | 25 to 100 nM
27 | CC[C@H]1CN(c2nc(N)c(C(N)=O)nc2Cl)CCN1C1CCN(Cc2ccc(Cl)cc2C(NC(C)=O)C(N)=O)CC1 (some centres unmarked) [compound 382] | > 100 nM
28 | CC[C@H]1CN(c2ncc(C(N)=O)nc2NC)CCN1C1CCN(C(=O)c2ccc(Cl)cc2)CC1 [compound 383] | > 100 nM
29 | CC[C@H]1CN(c2ncc(C(=O)NC)nc2NC)CCN1C1CCN(C(=O)c2ccc(Cl)cc2)CC1 [compound 384] | > 100 nM
30 | CC[C@H]1CN(c2nc(N)c(C(N)=O)nc2Cl)CCN1C1CCN(Cc2ccc(Cl)cc2C2CNC(=O)O2)CC1 (some centres unmarked) [compound 385] | < 25 nM
31 | CC[C@H]1CN(c2nc(N)c(C(N)=O)nc2Cl)CCN1C1CCN(Cc2ccc(Cl)cc2N2CCN(C)C2=O)CC1 [compound 386] | < 25 nM
32 | CC[C@H]1CN(c2ncc(C(N)=O)nc2Br)CCN1C1CCN(C(=O)c2ccc(Cl)cc2)CC1 [compound 387] | < 25 nM
33 | CC[C@H]1CN(c2ncc(C(N)=O)nc2C)CCN1C1CCN(C(=O)c2ccc(Cl)cc2)CC1 [compound 388] | < 25 nM
34 | CC[C@H]1CN(c2nc(N)c(C(=O)NC(=N)NC)nc2Cl)CCN1C1CCN(Cc2ccc(Cl)c(F)c2)CC1 [compound 389] | < 25 nM
35 | CC[C@H]1CN(c2nc(N)c(C(=O)NC(=N)NC)nc2Cl)CCN1C1CCN(Cc2ccc(Cl)cc2)CC1 [compound 390] | < 25 nM
36 | CC[C@H]1CN(c2nc(N)c(C(=O)NC(=N)NC)nc2Cl)CCN1C1CCN(Cc2ccc(OC(F)(F)F)cc2)CC1 [compound 391] | < 25 nM
37 | CC[C@H]1CN(c2nc(N)c(C(=O)NC(=N)NC)nc2Cl)CCN1C1CCN(C(=O)c2ccc(Cl)c(F)c2)CC1 [compound 392] | < 25 nM

The next lines start with the values.

Row | IC50 | SMILES
38 | < 25 nM | CC[C@H]1CN(c2nc(N)c(C(=O)NC)nc2Cl)CCN1C1CCN(C(=O)c2ccc(Br)cc2)CC1 [compound 331]
39 | < 25 nM | CCNC(=O)c1nc(Cl)c(N2CCN(C3CCN(C(=O)c4ccc(Cl)cc4)CC3)[C@@H](CC)C2)nc1N [compound 332]
40 | < 25 nM | CC[C@H]1CN(c2nc(N)c(C(=O)NC)nc2Cl)CCN1C1CCN(C(=O)c2ccc(Br)c(F)c2)CC1 [compound 333]
41 | < 25 nM | CC[C@H]1CN(c2nc(N)c(C(=O)NCCO)nc2Cl)CCN1C1CCN(C(=O)c2ccc(Cl)cc2)CC1 [compound 334]
42 | < 25 nM | CC[C@H]1CN(c2nc(N)c(C(=O)N[C@H](C)CO)nc2Cl)CCN1C1CCN(C(=O)c2ccc(Cl)cc2)CC1 [compound 335]
43 | < 25 nM | CC[C@H]1CN(c2nc(N)c(C(=O)NC)nc2Cl)CCN1C1CCN(C(=O)c2ccc(Cl)c(F)c2)CC1 [compound 336]
44 | < 25 nM | CCC(O)CNC(=O)c1nc(Cl)c(N2CCN(C3CCN(C(=O)c4ccc(Cl)cc4)CC3)[C@@H](CC)C2)nc1N (some centres unmarked) [compound 337]
45 | < 25 nM | CC[C@H]1CN(c2nc(N)c(C(=O)NC[C@@H](C)O)nc2Cl)CCN1C1CCN(C(=O)c2ccc(Cl)cc2)CC1 [compound 338]
46 | < 25 nM | CC[C@H]1CN(c2nc(N)c(C(=O)NC)nc2Cl)CCN1C1CCN(C(=O)c2ccc(C#N)cc2)CC1 [compound 340]
47 | 25 to 100 nM | CC[C@H]1CN(c2nc(N)c(C(=O)NC)nc2Cl)CCN1C1CCN(C(=O)c2ccc(Cl)cc2C)CC1 [compound 341]
48 | 25 to 100 nM | CC[C@H]1CN(c2nc(N)c(C(=O)NC)nc2Cl)CCN1C1CCN(C(=O)c2ccc(Br)cc2F)CC1 [compound 342]
49 | 25 to 100 nM | CC[C@H]1CN(c2nc(N)c(C(=O)NC)nc2Cl)CCN1C1CCN(C(=O)c2ccc(Cl)cc2O)CC1 [compound 343]
50 | 25 to 100 nM | CC[C@H]1CN(c2nc(N)c(C(N)=O)nc2Cl)CCN1C1CCN(C(=O)c2ccc(Cl)cc2)CC1 [compound 349]
51 | 25 to 100 nM | CC[C@H]1CN(c2nc(N)c(C(=O)NC)nc2Cl)CCN1C1CCN(C(=O)c2ccc(OC(F)(F)F)cc2)CC1 [compound 350]
52 | > 100 nM | CC[C@H]1CN(c2nc(N)c(C(=O)NC)nc2Cl)CCN1C1CCN(C(=O)c2ccc(-n3cccn3)cc2)CC1 [compound 353]
53 | > 100 nM | CC[C@H]1CN(c2nc(N)c(C(=O)NC)nc2Cl)CCN1C1CCN(C(=O)c2ccc(-c3cnco3)cc2)CC1 [compound 354]
54 | > 100 nM | CC[C@H]1CN(c2nc(N)c(C(=O)NC[C@@H](O)CO)nc2Cl)CCN1C1CCN(C(=O)c2ccc(Cl)cc2)CC1 [compound 356]
55 | > 100 nM | CC[C@H]1CN(c2nc(N)c(C(=O)NN)nc2Cl)CCN1C1CCN(C(=O)c2ccc(Cl)cc2)CC1 [compound 358]
56 | > 100 nM | CC[C@H]1CN(c2nc(N)c(C(=O)NC[C@H](O)CO)nc2Cl)CCN1C1CCN(C(=O)c2ccc(Cl)cc2)CC1 [compound 359]
57 | > 100 nM | CC[C@H]1CN(c2nc(N)c(C(=O)NC)nc2Cl)CCN1C1CCN(C(=O)c2ccc(Cl)c(NS(C)(=O)=O)c2)CC1 [compound 364]
58 | > 100 nM | CC[C@H]1CN(c2nc(N)c(C(=O)NC)nc2Cl)CCN1C1CCN(C(=O)c2ccc(Cl)c(N)c2)CC1 [compound 365]
59 | > 100 nM | CC[C@H]1CN(c2nc(N)c(C(=O)NC)nc2Cl)CCN1C1CCN(C(=O)c2ccc(Cl)cc2NC)CC1 [compound 366]
60 | < 25 nM | CC[C@H]1CN(c2nc(N)c(C(=O)NC)nc2Cl)CCN1C1CCN(C(=N)c2ccc(Cl)cc2)CC1 [compound 371]
61 | > 100 nM | CC[C@H]1CN(c2nc(N)c(C(=O)NNC(C)=O)nc2Cl)CCN1C1CCN(C(=O)c2ccc(Cl)cc2)CC1 [compound 373]
62 | < 25 nM | CC[C@H]1CN(c2nc(N)c(C(=O)NC(=N)NC)nc2Cl)CCN1C1CCN(C(=O)c2ccc(Cl)cc2)CC1 [compound 393]
